Holding throughout (assay type): in vivo
For data set [1], the system named is lambsquarters (CHEAL, Chenopodium album). As to the kind of experiment: Postemergence greenhouse trial, herbicidal efficacy on lambsquarters. Conditions: post-emergence, 528 h. How it is done:
(§1) Seeds of the desired test plant species were planted in Sun Gro MetroMix® 306 planting mixture, which typically has a pH of 6.0 to 6.8 and an organic matter content of about 30 percent, in plastic pots with a surface area of 103.2 square centimeters (cm^2). When required to ensure good germination and healthy plants, a fungicide treatment and/or other chemical or physical treatment was applied. The plants were grown for 7-36 days (d) in a greenhouse with an approximate 14-hour (h) photoperiod which was maintained at about 23° C. during the day and 22° C. during the night. Nutrients and water were added on a regular basis and supplemental lighting was provided with overhead metal halide 1000-Watt lamps as necessary. The plants were employed for testing when they reached the second or third true leaf stage.
(§2) Weighed amounts of technical material were dissolved in a volume of 97:3 volume per volume (v/v) acetone/dimethyl sulfoxide (DMSO) to stock solutions. […] The concentrated stock solutions were diluted with an aqueous mixture of 1.5% v/v of Agri-dex crop oil concentrate to provide the appropriate application rates. Compound requirements are based upon a 12 milliliter (mL) application volume at a rate of 187 liters per hectare (L/ha). Stocks solutions of the safeners were prepared following the same procedure. Spray solutions of the safeners and experimental compound mixtures were prepared by adding the stock solutions to the appropriate amount of dilution solution to form a 12 mL spray solution in two-way combinations. Formulated compounds were applied to the plant material with an overhead Mandel track sprayer equipped with 8002E nozzles calibrated to deliver 187 L/ha over an application area of 0.503 square meters (m^2) at a spray height of 18 inches (43 centimeters (cm)) above average plant canopy. Control plants were sprayed in the same manner with the solvent blank. All herbicide application (component a) rates are in g ae/ha and all safener (component b) rates are in g ai/ha.
(§3) The treated plants and control plants were placed in a greenhouse as described above and watered by sub-irrigation to prevent wash-off of the test compounds. After 20-22 d, the condition of the test plants as compared with that of the control plants was determined visually and scored on a scale of 0 to 100 percent where 0 corresponds to no injury and 100 corresponds to complete kill. The condition of the test plants was compared with that of the control plants as determined visually and scored on a scale of 0 to 100 percent, where 0 corresponds to no injury and 100 corresponds to complete kill. Colby's equation was used to determine the herbicidal effects expected from the mixtures.

The test system of data set [2] is thistle (CIRAR, Cirsium arvense). Kind of data set: Postemergence greenhouse trial, herbicidal efficacy on thistle. Particulars: post-emergence, 528 h. Here is the method:
as §1, §2, §3

Data set [3] deals with sorghum (SORVU, Sorghum bicolor). As to the kind of experiment: Postemergence greenhouse trial, herbicidal efficacy on sorghum. Conditions: applied alone at 35 g/ha; for % visual injury, Obs, SORVU: rated after 20-22 d; for Obs, % visual injury, SORVU: scored 20-22 d. Here is the method:
as §1, §2, §3

For data set [4], the system named is velvetleaf (ABUTH, Abutilon theophrasti). Kind of data set: Postemergence greenhouse trial, herbicidal efficacy on velvetleaf. Particulars: post-emergence, 528 h. How it is done:
as §1, §2, §3

For data set [5], the system named is wheat (TRZAS), Triticum aestivum (spring wheat). Kind of data set: Postemergence greenhouse trial, crop injury (phytotoxicity/safening) on wheat. Conditions: applied alone at 35 g/ha, scored 20-22 d, 0 = no injury, 100 = complete kill. How it is done: as §1, §2, §3
(§4) The safener fenchlorazole-ethyl was combined with compound 1, compound 2, compound 3, compound 4, compound 5, and compound 6, and applied to wheat (TRZAS), and the phytotoxicity of the herbicidal compositions was measured. In addition, the efficacy of the herbicidal composition on velvetleaf (ABUTH, Abutilon theophrasti), pigweed (AMARE, Amaranthus retroflexus), winter rape (BRSNW, Brassica napus), lambsquarters (CHEAL, Chenopodium album), thistle (CIRAR, Cirsium arvense), nutsedge (CYPES, Cyperus esculentus), poinsettia (EPHHL, Euphorbia heterophylla), wild buckwheat (POLCO, Polygonum convolvulus), giant foxtail (SETFA, Setaria faberi), sorghum (SORVU, Sorghum bicolor), chickweed (STEME, Stellaria media), and wild pansy (VIOTR, Viola tricolor) was evaluated.
The safener isoxadifen-ethyl was combined with compound 1, compound 2, compound 3, compound 4, compound 5, and compound 6, and applied to wheat (TRZAS), and the phytotoxicity of the herbicidal compositions was measured. […]

Data set [6] has as its system wild buckwheat (POLCO, Polygonum convolvulus). Kind of data set: Postemergence greenhouse trial, herbicidal efficacy on wild buckwheat. Particulars: Fallopia convolvulus, post-emergence, 528 h. How it is done: as §1, §2, §3
Data set [7] has as its system corn/maize (ZEAMX), Zea mays. Kind of data set: Postemergence greenhouse trial, crop injury (phytotoxicity/safening) on corn/maize. Particulars: applied alone at 35 g/ha, rated after 20-22 d. How it is done:
as §1
as §2, with “All herbicide application (component a) rates are in g ae/ha and all safener (component b) rates are in g ai/ha.” left out
as §3, with “Colby's equation was used to determine the herbicidal effects expected from the mixtures.” left out
as §4, with “compound” for “compound 3, compound 4, compound”, “corn/maize (ZEAMX)” for “wheat (TRZAS),”, “bicolor), and” for “bicolor),”, “media)” for “media), and wild pansy (VIOTR, Viola tricolor)”
The safener mefenpyr-diethyl was combined with compound 1, compound 2, and compound 5, and applied to corn/maize (ZEAMX) and the phytotoxicity of the herbicidal compositions were measured. […]

Data set [8] concerns poinsettia (EPHHL, Euphorbia heterophylla). As to the kind of experiment: Postemergence greenhouse trial, herbicidal efficacy on poinsettia. Particulars: for pest or weed control at 35 g/ha: Euphorbia heterophylla, post-emergence, 528 h, read-out: % visual injury, Obs, EPHHL. Here is the method:
as §1, §2, §3

The subject of data set [9] is pigweed (AMARE, Amaranthus retroflexus). Kind of data set: Postemergence greenhouse trial, herbicidal efficacy on pigweed. Particulars: post-emergence, 528 h. Here is the method: as §1, §2, §3
Data set [10] relates to chickweed (STEME, Stellaria media). Kind of data set: Postemergence greenhouse trial, herbicidal efficacy on chickweed. Conditions: post-emergence, 528 h. Here is the method:
as §1, §2, §3

The subject of data set [11] is wild pansy (VIOTR, Viola tricolor). Kind of data set: Postemergence greenhouse trial, herbicidal efficacy on wild pansy. Conditions: for pest or weed control at 35 g/ha: Viola tricolor, post-emergence, 528 h, read-out: Obs, % visual injury, VIOTR; for % visual injury, Obs, VIOTR: rated after 20-22 d. How it is done:
as §1, §2, §3

Data set [12] has as its system nutsedge (CYPES, Cyperus esculentus). As to the kind of experiment: Postemergence greenhouse trial, herbicidal efficacy on nutsedge. Conditions: applied alone at 35 g/ha; for % visual injury, Obs, CYPES: rated after 20-22 d. How it is done:
as §1, §2, §3

Data set [13] deals with winter rape (BRSNW, Brassica napus). Kind of data set: Postemergence greenhouse trial, herbicidal efficacy on winter rape. Conditions: post-emergence, 528 h. How it is done:
as §1, §2, §3

Where [14] appears, read: applied alone at 35 g/ha, postemergence, rated after 20-22 d, read-out: % visual injury, Obs, CHEAL.
The mark [15] stands for this setting: applied alone at 35 g/ha, postemergence, scored 20-22 d, read-out: Obs, % visual injury, CHEAL.
Where [16] appears, read: applied alone at 35 g/ha, postemergence, rated after 20-22 d, read-out: % visual injury, Obs, CIRAR.
Where [17] appears, read: applied alone at 35 g/ha, postemergence, scored 20-22 d, read-out: Obs, % visual injury, CIRAR.
[18] abbreviates: applied alone at 35 g/ha, postemergence, rated after 20-22 d, read-out: % visual injury, Obs, ABUTH.
Setting [19] is: applied alone at 35 g/ha, postemergence, scored 20-22 d, read-out: Obs, % visual injury, ABUTH.
Where [20] appears, read: applied alone at 35 g/ha, postemergence, rated after 20-22 d, read-out: % visual injury, Obs, POLCO.
[21] abbreviates: applied alone at 35 g/ha, postemergence, rated after 20-22 d.
The mark [22] stands for this setting: applied alone at 35 g/ha, postemergence, rated after 20-22 d, read-out: % visual injury, Obs, AMARE.
Where [23] appears, read: applied alone at 35 g/ha, postemergence, scored 20-22 d, read-out: Obs, % visual injury, AMARE.
The mark [24] stands for this setting: applied alone at 35 g/ha, postemergence, rated after 20-22 d, read-out: % visual injury, Obs, STEME.
[25] abbreviates: applied alone at 35 g/ha, postemergence, scored 20-22 d, read-out: Obs, % visual injury, STEME.
The mark [26] stands for this setting: applied alone at 35 g/ha, postemergence, scored 20-22 d.
The mark [27] stands for this setting: applied alone at 35 g/ha, postemergence.
Where [28] appears, read: applied alone at 35 g/ha, postemergence, rated after 20-22 d, read-out: % visual injury, Obs, BRSNW.
The mark [29] stands for this setting: applied alone at 35 g/ha, postemergence, scored 20-22 d, read-out: Obs, % visual injury, BRSNW.

Where two headings read alike, the source gives them in different places.

As to `COC(=O)c1nc(-c2ccc3ccn(C(=O)C(C)(C)C)c3c2F)c(F)c(N)c1Cl` [compound 5], the pest or weed control at 35 g/ha in data set [1] (setting [14]) amounted to 100%; in [1] (setting [15]), 100%; in [2] (setting [16]), 80%; in [2] (setting [17]), 80%; in data set [4] (setting [18]), 80%; in [4] (setting [19]), 80%. The pest or weed control at 35 g/ha in data set [6] (setting [20]) is 100%; in data set [8] (setting [21]), 100%; in data set [9] (setting [22]) it was 100%; in data set [9] (setting [23]), 100%; in data set [10] (setting [24]), 85%; in data set [10] (setting [25]), 85%. The pest or weed control at 35 g/ha in data set [11] (setting [26]) is 40%. In addition, the “% visual injury, Obs, SORVU” value in data set [3] is listed as 60%. Also, the “Obs, % visual injury, SORVU” value in [3] amounted to 60%. The “Obs, % visual injury, TRZAS” value in data set [5] turned out to be 45%. The “% visual injury, Obs, ZEAMX” value in [7] is reported as 35%. For the same compound, in data set [11] (setting [27]), the “% visual injury, Obs, VIOTR” value worked out at 40%. Also, in data set [12], the “% visual injury, Obs, CYPES” value amounted to 0%. Besides, the plant injury at 35 g/ha in data set [13] (setting [28]) and in data set [13] (setting [29]) was 97% each time.

Turning to `CCOC(=O)C1=NN(c2ccc(Cl)cc2Cl)C(C)(C(=O)OCC)C1` (centres unmarked) [mefenpyr-diethyl, reference compound], the pest or weed control at 35 g/ha in data set [1] (read-out: % visual injury, Obs, CHEAL) worked out at 0%; in [1] (read-out: Obs, % visual injury, CHEAL) it was 0%; in data set [2] (read-out: % visual injury, Obs, CIRAR) it was 0%; in [2] (read-out: Obs, % visual injury, CIRAR), 0%; in [4] (read-out: % visual injury, Obs, ABUTH), 0%; in data set [4] (read-out: Obs, % visual injury, ABUTH), 0%. The pest or weed control at 35 g/ha in [6] (read-out: % visual injury, Obs, POLCO) came out at 0%; in [6] (read-out: Obs, % visual injury, POLCO), 0%; in data set [8] it was 0%; in data set [9] (read-out: % visual injury, Obs, AMARE) it was 0%; in data set [9] (read-out: Obs, % visual injury, AMARE), 0%; in data set [10] (read-out: % visual injury, Obs, STEME) it was 0%. For the same compound, the pest or weed control at 35 g/ha stood at 0% in data set [10] (read-out: Obs, % visual injury, STEME) and 0% in data set [11]. Also, the “% visual injury, Obs, SORVU” value in data set [3] is recorded as 0%. Besides, in data set [3], the “Obs, % visual injury, SORVU” value was 0%. In addition, in data set [5], the “Obs, % visual injury, TRZAS” value turned out to be 0%. Besides, the “% visual injury, Obs, ZEAMX” value in data set [7] came out at 0%. The “% visual injury, Obs, VIOTR” value in [11] (setting [27]) was 0%. Besides, the “% visual injury, Obs, CYPES” value in data set [12] is given as 0%. In addition, the plant injury at 35 g/ha in data set [13] (read-out: % visual injury, Obs, BRSNW) was determined as 0%; in data set [13] (read-out: Obs, % visual injury, BRSNW) it was 0%.

In the case of `COC(=O)c1nc(-c2ccc3ccn(C(=O)C(C)C)c3c2F)c(F)c(N)c1Cl` [compound 4], the pest or weed control at 35 g/ha in data set [1] (setting [14]) was 97%; in data set [1] (setting [15]), 97%; in [2] (setting [16]) it was 75%; in [2] (setting [17]), 75%; in data set [4] (setting [18]), 80%; in data set [4] (setting [19]) it was 80%. The pest or weed control at 35 g/ha was 100% in data set [6] (setting [20]); 100% in data set [6] (applied alone at 35 g/ha, postemergence, scored 20-22 d, read-out: Obs, % visual injury, POLCO); 100% in data set [8] (setting [21]); 100% in data set [9] (setting [22]); 100% in data set [9] (setting [23]); 93% in [10] (setting [24]). In addition, the pest or weed control at 35 g/ha in data set [10] (setting [25]) was 93%; in data set [11] (setting [26]), 60%. For the same compound, the “% visual injury, Obs, SORVU” value in data set [3] was found to be 80%. In addition, the “Obs, % visual injury, TRZAS” value in data set [5] is reported as 40%. The “% visual injury, Obs, ZEAMX” value in [7] came to 35%. Further, in data set [8] (setting [26]), the “Obs, % visual injury, EPHHL” value is reported as 100%. In addition, the “% visual injury, Obs, CYPES” value in data set [12] is 0%. Further, the “Obs, % visual injury, CYPES” value in data set [12] (scored 20-22 d) is on record as 0%. Also, the plant injury at 35 g/ha in data set [13] (setting [28]) and in data set [13] (setting [29]) was 97% in each case.

The values are drawn from patent US20160135455A1, “SAFENED HERBICIDAL COMPOSITIONS COMPRISING PYRIDINE CARBOXYLIC ACIDS” (Dow AgroSciences LLC, priority 2014, published 2016).
